Experimental data: US20170296568A1, “SIRTUIN GENE POTENTIATOR, AND PHARMACEUTICAL PRODUCT, COSMETIC PRODUCT, AND FOOD PRODUCT USING SAME” (MORISHITA JINTAN CO., LTD., priority 2012, published 2017)

Key:
Format in all cases: cell-based, human
[1] = tested on: hSIRT1 promoter; experiment: Screening for SIRT1 enhancing polyphenol or terpenoid: hSIRT1 promoter activity (EGFP fluorescence) in Caco-2-hSIRT1p-EGFP cells; details: 10 μM, 2 days after addition, relative ratio to control (PBS), FIG. 1
Text: First, the promoter region (−1593 to −1 bp) of hSIRT1 (human SIRT1) was acquired using the LA-PCR method using, as a template, a human genome DNA extracted from TIG-1 cells (obtained from Institute of Development, Aging and Cancer, Tohoku University), with primers synthesized based on reported information of the hSIRT1 genomic sequence so as to synthesize primers having added AseI and NheI recognition sequences at their respective ends (hSIRT1p-AseI (SEQ ID NO: 1) and hSIRT1p-NheI (SEQ ID NO: 2)). The PCR reaction condition was at 94° C. for 1 minute, followed by at 98° C. for 20 seconds; and at 68° C. for 2 minutes, 34 cycles; and then at 72° C. for 10 minutes for extension reaction. LA-Taq from Takara Shuzo Co., Ltd. was used as the TaqDNApolymerase. The primers were synthesized by Nippon EGT based on our request.
The hSIRT1 promoter fragment obtained by the LA-PCR was subjected to TA cloning using a pGEM-T Easy vector (manufactured by Promega KK). Furthermore, the base sequence thereof was confirmed by sequencing. The hSIRT1 promoter fragment, inserted into the pGEM-T Easy vector, was cut out by digestion with the restriction enzymes AseI and NheI, and the CMV promoter of a pEGFP-C3 (manufactured by Takara Bio Inc.) was removed by digestion with AseI and NheI in a similar manner, and the hSIRT1 promoter fragment was inserted into that removed site, so that phSIRT1p-EGFP was obtained.
Transfection was performed using a LIPOFECT AMINE 2000 REAGENT (manufactured by Life Technologies) according to its protocol. On the day before the transfection, Caco-2 cells (human colonic cancer-derived cells obtained from Riken BioResource Center) were plated at 1.0×10^6 in a 10-mL dish. On the day of the transfection, phSIRT1p-EGFP (10 μg) was diluted in a serum-free OPTI-MEM medium to a volume of 750 μL, after which 15 μL of LIPOFECT AMINE Reagent was diluted in a serum-free OPTI-MEM medium to […], and they were incubated at room temperature for 5 minutes. The transfection using the LIPOFECT AMINE Reagent was performed in the absence of serum, during which the culture medium of the Caco-2 cells plated on the previous day was removed, and was replaced by 5 mL of serum-free OPTI-MEM medium. After 30 minutes of this, 1.5 mL of DNA-LIPOFECT AMINE 2000 mixture was added to each 10-mL dish. After the addition, the dish was gently shaken to mix the DNA-LIPOFECT AMINE and the OPTI-MEM. After the culture for 3 hours, the DNA-LIPOFECT AMINE mixture solution was removed, and the medium was replaced by a serum-containing culture medium. Subsequently, culture was performed under the environment at 5% CO2/95% air and 37° C. for 21 hours, and the culture medium was replaced by a new one.
Since phSIRT1p-EGFP is resistant to the drug G418, the drug G418 was added to the transfected cells to 70 μg/mL to subject them to the drug selection for a week. The culture medium was replaced by a new one every three days, and G418 was added every time at the same concentration. Accordingly, Caco-2-hSIRT1p-EGFP cells were obtained.
Caco-2-hSIRT1p-EGFP cells were plated at 0.6×10^4 cells/well in a 96-well plate. On the next day, 10 μM polyphenol or terpenoid, or control (PBS) was added to each well. At 2 days after the addition, the culture solution was aspirated, after which 100 μL of 4% paraformaldehyde was added to each well, and the plate was allowed to stand at room temperature for 10 minutes. After the plate was allowed to stand for 10 minutes, 4% paraformaldehyde was aspirated, 100 μL of Cellstain (registered trademark)-Hoechst 33342 solution (Dojindo) diluted 1/500 with PBS was added to each well, and the plate was allowed to stand at room temperature in the dark for 15 minutes and the solution was then aspirated. Then, 100 μL of PBS was added to each well, and the fluorescence intensity was measured using an IN Cell Analyzer 1000 (GE Healthcare, Amersham Place, UK). The promoter activity was represented by a relative ratio to the activity of the control.

[2] = tested on: sirtuin gene hSIRT1; experiment: Expression level of endogenous sirtuin gene hSIRT1 in Caco-2 cells (quantitative PCR, relative to β-actin); details: 10 μM, 2 days, qPCR normalised to β-actin, FIG. 2
Method: Caco-2 cells were plated at 3.0×10^5 cells for a 5-mL dish. After 24 hours, each polyphenol was added to be 10 μM. Note that as a negative control, none of polyphenol nor terpenoid was added, and as a positive control, 10 μM resveratrol was added. At 2 days after this treatment, RNA was collected.
The total RNA was prepared using High Pure RNA Isolation Kit (manufactured by Roche, Indianapolis, Ind., USA). For the procedures from the total RNA preparation to the reverse transcription, the reagents and tools used were RNase-free. Cells were prepared in a sub-confluent to confluent condition in a cell culture dish (Greiner bio-one, Monroe, N.C., USA). The medium was completely removed, 200 μL of PBS, and 400 μL of cell lysis solution, which was contained in High Pure RNA Isolation Kit, were added, and the entire dish was well covered by the cell lysis solution. When the viscosity of the cell lysis solution was decreased, the cell lysis solution was collected into a 1.5-mL sample tube. The collected sample was well suspended. A filter tube and a collection tube, which were contained in High Pure RNA Isolation Kit, were assembled, and the sample was pipetted into a buffer reservoir in the upper portion of the filter tube, and was centrifuged at 8,000×g for 15 seconds. The flowthrough liquid into the collection tube was discarded, and the filter tube and the collection tube were again assembled. Then, 90 μL of DNase incubation buffer per sample was pipetted into a sterile reaction tube, and 10 μL of DNase I was added into the tube and mixed. The mixture liquid was pipetted into the buffer reservoir in the upper portion of the filter tube, was added on the glass fiber fleece in the filter tube, and was incubated at room temperature for 15 minutes. Then, 500 μL of wash buffer I, which was contained in High Pure RNA Isolation Kit, was added to the buffer reservoir in the upper portion of the filter tube, and was centrifuged at 8,000×g for 15 seconds. The flowthrough liquid into the collection tube was discarded, and the filter tube and the collection tube were again assembled. Then, 500 μL of wash buffer II was added to the buffer reservoir in the upper portion of the filter tube, and centrifugation was performed at 8,000×g for 15 seconds. The liquid discharged to the collection tube was discarded, and the filter tube and the collection tube were again assembled. Then, 200 μL of wash buffer II was added to the buffer reservoir in the upper portion of the filter tube, and centrifugation was performed at 13,000×g for 2 minutes, after which a remaining wash buffer in the filter tube was removed. The collection tube was discarded, the filter tube was inserted into a sterile reaction tube, and 50 μL of elution buffer was added in the filter tube, and centrifugation was performed at 8,000×g for 1 minute. The eluate obtained by the procedures was taken as an RNA solution. The concentration of RNA in the solution was calculated based on the light absorbance at 260 nm with a NanoDrop 2000/2000c spectrophotometer (Thermo Scientific, Waltham, Mass., USA), for use in subsequent experiments.
Then, 5 pmol of oligo(dT)20 primer was added to 1.0 μg of total RNA extracted from the cells, and sterile water was further added thereto so that the total liquid amount was 13 μL. Heat treatment was performed using a thermal cycler (Peltier Thermal Cycler PTC-200, MJ Research, Watertown, Mass., USA) at 65° C. for 5 minutes, and the resultant was immediately transferred in ice to quench it. During this treatment, the reverse transcriptase reaction program was advanced to the 42° C. stage and was temporarily stopped. A mixture solution obtained by mixing 4 μL of reverse transcriptase reaction buffer solution, 2 μL of 1 mM dNTPs (Amershan Pharmacia Biotech., Buckinghamshire, UK), and 0.5 μL of reverse transcriptase ReverTra Ace (TOYOBO, Osaka, Japan) per sample was added to and gently mixed with the sample on ice after 5 minutes. […]

[3] = tested on: hSIRT1 promoter; experiment: Enhancing the hSIRT1 promoter: EGFP fluorescence intensity in HaCaT-hSIRT1p-EGFP cells by flow cytometry; details: 10 μM in DMSO, 24 hours after addition, FIG. 4
Method: HaCaT cells (human epidermis keratinocyte-derived cell lines, provided by Dr. Takumi Miura, National Center for Child Health and Development) were cultured using a Dalbecco's Modified Eagle Medium (DMEM) medium (Nissui Pharmaceutical Co., Ltd, Tokyo) supplemented with 10% FBS, 100,000 U/L penicillin (Meiji, Tokyo), 100 mg/L streptomycin (Meiji), and 2.0 g/L NaHCO3. These cells were subcultured at 37° C. in the presence of 5% CO2.
HaCaT cell lines (HaCaT-hSIRT1p-EGFP cells) into which the vector (phSIRT1-EGFP) described in Reference Example 1 was integrated were prepared as below.
The HaCaT cells were disseminated at 9.0×10^5 in a φ60-mm dish, and were cultured in 10% FBS supplemented DMEM medium. Cells as a control were prepared in a similar manner. After 24 hours, 8 μg of phSIRT1p-EGFP was added to and mixed with 300 μL of DMEM medium, 24 μL of Hilymax (manufactured by Dojindo Laboratories), which is a transfection reagent, was further added and mixed therewith, and the mixture was incubated for 15 minutes at room temperature. Subsequently, the total amount was added to the HaCaT cells. After 3 hours, the medium was replaced by 10% FBS supplemented DMEM medium.
At 24 hours after the gene introduction, the medium was replaced by 10% FBS supplemented DMEM medium containing 750 μg/mL of G418 (Wako Pure Chemical Industries, Ltd.). After visually confirming under a microscope that all the control non-treated HaCaT cells were killed, the subculture was continued using 10% FBS supplemented DMEM containing 150 μg/mL of G418.
It was confirmed with flow cytometry that the phSIRT1p-EGFP vector was reliably transferred inro the cells after the subculture. The above-described cells and the control non-treated HaCaT cells were plated at 7.0×10^5 per a φ60-mm dish, respectively. After 24 hours, the cells were picked up and well suspended in 2 mL of 5% FBS supplemented DMEM medium, and were filtered through a Nylon Mesh (Kyoshin Rikoh Inc., Japan), and the EGFP fluorescence intensity thereof was measured with a Flow Cytometer (EPICS, BeckmanCoulter). The analysis was performed using software FlowJo (Tree Star, Ashland Oreg.), so that the EGFP fluorescence intensity of each cell was represented as a histogram.
HaCaT-hSIRT1p-EGFP cells were plated at 1.7×10^6 cells in a φ60-mm dish (as measured by flow cytometry) or at 2.0×10^4 cells/well in a 96-well plate (as measured by an IN Cell Analyzer 1000). After 24 hours, 10 μM of each polyphenol or terpenoid dissolved in DMSO (Wako Pure Chemical Industries, Ltd.) was added thereto. Note that as a negative control, the same amount of DMSO was added without polyphenol or terpenoid, and as a positive control, 10 μM resveratrol was added. At 24 hours after the addition of the various polyphenols or terpenoids or the controls, the fluorescence intensity was measured by flow cytometry.

| SMILES | relative hSIRT1 promoter activity [1] | relative gene expression level of hSIRT1 [2] | EGFP fluorescence intensity (hSIRT1 promoter activity) [3] |
| --- | --- | --- | --- |
| C[C@@]12CCc3occc3[C@H]1CC[C@@]13C[C@@H](CC[C@H]12)[C@@](O)(CO)C3 [cafestol] | particularly strong hSIRT1 promoter enhancing activity | hSIRT1 transcription enhancing effect was observed |  |
| O=C(O[C@@H]1O[C@@H]2COC(=O)c3cc(O)c(O)c(O)c3-c3c(cc(O)c(O)c3O)C(=O)O[C@H]2[C@H](OC(=O)c2cc(O)c(O)c(O)c2)[C@H]1OC(=O)c1cc(O)c(O)c(O)c1)c1cc(O)c(O)c(O)c1 [eugeniin] | particularly strong hSIRT1 promoter enhancing activity | hSIRT1 transcription enhancing effect was observed |  |
| CC1(C)[C@@H](O[C@H]2O[C@H](C(=O)O)[C@@H](O)[C@H](O)[C@H]2O[C@@H]2O[C@H](C(=O)O)[C@@H](O)[C@H](O)[C@H]2O)CC[C@]2(C)[C@H]3C(=O)C=C4[C@@H]5C[C@@](C)(C(=O)O)CC[C@]5(C)CC[C@@]4(C)[C@]3(C)CC[C@@H]12 [glycyrrhizin] |  | hSIRT1 transcription enhancing effect was observed |  |
| O=C(O[C@H]1[C@@H]2OC(=O)c3cc(O)c(O)c(O)c3-c3c(cc(O)c(O)c3O)C(=O)OC[C@H]2OC(O)[C@@H]1OC(=O)c1cc(O)c(O)c(O)c1)c1cc(O)c(O)c(O)c1 (stereo partly shown) [tellimagrandin I] | particularly strong hSIRT1 promoter enhancing activity |  | hSIRT1 expression effect on skin epidermis cells was seen |
